Test results reported in ChEMBL document CHEMBL1134254, “Syntheses of certain 3-aryl-2-propenoates and evaluation of their cytotoxicity” (Bioorg Med Chem Lett, 2001).
Values after ≈ are worked out from the molar mass of the structure shown.

Columns and labels:
HCT-116 = test: cells; conditions: Homo sapiens
Description: Inhibitory concentration against HCT 116 human colon cancer cell line

A-431 = test: cells; conditions: Homo sapiens
Description: Inhibitory concentration required against A 431 human epidermoid carcinoma cell line

B16 = test: Inhibitory concentration against B16 murine melanoma cell line; conditions: Mus musculus
ACHN = test: Inhibitory concentration required against ACHN renal cancer cell line; conditions: Homo sapiens
HCT-15 = test: Inhibitory concentration required against HCT 15 colon cancer cell line; conditions: Homo sapiens
LOX IMVI = test: Inhibitory concentration required against LOX-IMVI melanoma cell line; conditions: Homo sapiens
COLO 205 = test: cells; conditions: Homo sapiens
Description: Inhibitory concentration required against COLO 205 colon cancer cell line

HT-29 = test: Inhibitory concentration required against HT 29 colon cancer cell line; conditions: Homo sapiens
NCI-H23 = test: Inhibitory concentration required against NCI-H23 lung cancer cell line; conditions: Homo sapiens
A549 = test: cells; conditions: Homo sapiens
Description: Inhibitory concentration required against A 549 lung cancer cell line

MCF7 = test: Inhibitory concentration required against MCF-7 breast cancer cell line; assay type: functional, cell-based; conditions: Homo sapiens
SNB-19 = test: Inhibitory concentration required against SNB19 CNS cancer cell line; assay type: functional, cell-based; conditions: Homo sapiens
PC-3 = test: Inhibitory concentration required against PC-3 prostate cancer cell line; conditions: Homo sapiens
MDA-MB-231 = test: cells; conditions: Homo sapiens
Description: Inhibitory concentration required against MDA-MB-231 breast cancer cell line

HCC 2998 = test: Inhibitory concentration required against HCC2998 colon cancer cell line; conditions: Homo sapiens
UACC-62 = test: Inhibitory concentration required against UACC62 melanoma cell line; conditions: Homo sapiens
DLD-1 = test: Inhibitory concentration required against DLD-1 colon cancer cell line; conditions: Homo sapiens
SW-620 = test: Inhibitory concentration required against SW620 colon cancer cell line; conditions: Homo sapiens

COC(=O)/C=C/c1ccc(OC)c(O)c1
IC50 (HCT-116): 27.5 µg/mL (≈ 132 µM) | IC50 (A-431): > 30 µg/mL | IC50 (B16): 25.9 µg/mL (≈ 124 µM)

COC(=O)/C=C/c1cc(O)c2c(c1O)C(=O)c1ccccc1C2=O
IC50 (ACHN): 0.42 µg/mL (≈ 1.3 µM) | IC50 (HCT-15): 0.66 µg/mL (≈ 2.04 µM) | IC50 (HCT-116): 0.65 µg/mL (≈ 2 µM) | IC50 (LOX IMVI): 0.09 µg/mL (≈ 0.278 µM) | IC50 (COLO 205): 0.73 µg/mL (≈ 2.25 µM) | IC50 (HT-29): 0.55 µg/mL (≈ 1.7 µM) | IC50 (NCI-H23): 0.39 µg/mL (≈ 1.2 µM) | IC50 (A549): 1.13 µg/mL (≈ 3.48 µM) | IC50 (MCF7): 0.46 µg/mL (≈ 1.42 µM) | IC50 (A-431): 0.87 µg/mL (≈ 2.68 µM) | IC50 (SNB-19): 0.69 µg/mL (≈ 2.13 µM) | IC50 (B16): 0.18 µg/mL (≈ 0.555 µM) | IC50 (PC-3): 2.72 µg/mL (≈ 8.39 µM) | IC50 (MDA-MB-231): 0.74 µg/mL (≈ 2.28 µM) | IC50 (HCC 2998): 0.95 µg/mL (≈ 2.93 µM) | IC50 (UACC-62): 0.11 µg/mL (≈ 0.339 µM) | IC50 (DLD-1): 0.89 µg/mL (≈ 2.74 µM) | IC50 (SW-620): 0.45 µg/mL (≈ 1.39 µM)

COC(=O)/C=C/c1ccc2c(c1)OCO2
IC50 (HCT-116): > 30 µg/mL | IC50 (A-431): > 30 µg/mL | IC50 (B16): > 30 µg/mL

COC(=O)CCc1cc(O)ccc1O
IC50 (HCT-116): 4.59 µg/mL (≈ 23.4 µM) | IC50 (A-431): 5 µg/mL (≈ 25.5 µM) | IC50 (B16): 4.43 µg/mL (≈ 22.6 µM)

COC(=O)/C=C/c1cc(O)ccc1O
IC50 (ACHN): 0.73 µg/mL (≈ 3.76 µM) | IC50 (HCT-15): 0.27 µg/mL (≈ 1.39 µM) | IC50 (HCT-116): 0.17 µg/mL (≈ 0.875 µM) | IC50 (LOX IMVI): 0.28 µg/mL (≈ 1.44 µM) | IC50 (COLO 205): 0.97 µg/mL (≈ 5 µM) | IC50 (HT-29): 1.1 µg/mL (≈ 5.66 µM) | IC50 (NCI-H23): 0.93 µg/mL (≈ 4.79 µM) | IC50 (A549): 7.81 µg/mL (≈ 40.2 µM) | IC50 (MCF7): 0.37 µg/mL (≈ 1.91 µM) | IC50 (A-431): 0.15 µg/mL (≈ 0.772 µM) | IC50 (SNB-19): 2.59 µg/mL (≈ 13.3 µM) | IC50 (B16): 0.12 µg/mL (≈ 0.618 µM) | IC50 (PC-3): 0.42 µg/mL (≈ 2.16 µM) | IC50 (MDA-MB-231): 0.82 µg/mL (≈ 4.22 µM) | IC50 (HCC 2998): 5.22 µg/mL (≈ 26.9 µM) | IC50 (UACC-62): 0.56 µg/mL (≈ 2.88 µM) | IC50 (DLD-1): 0.68 µg/mL (≈ 3.5 µM) | IC50 (SW-620): 0.39 µg/mL (≈ 2.01 µM)

CCCOC(=O)/C=C/c1ccc(O)c(O)c1
IC50 (HCT-116): 2.12 µg/mL (≈ 9.54 µM) | IC50 (A-431): 1.89 µg/mL (≈ 8.5 µM) | IC50 (B16): 2.46 µg/mL (≈ 11.1 µM)

CCOC(=O)/C=C/c1cc(OC)c2c(c1OC)C(=O)c1ccccc1C2=O
IC50 (HCT-116): > 30 µg/mL | IC50 (A-431): > 30 µg/mL | IC50 (B16): > 30 µg/mL

CCOC(=O)/C=C/c1cc(O)c2c(c1O)C(=O)c1ccccc1C2=O
IC50 (HCT-116): 0.71 µg/mL (≈ 2.1 µM) | IC50 (A-431): 0.91 µg/mL (≈ 2.69 µM) | IC50 (B16): 0.32 µg/mL (≈ 0.946 µM)

COC(=O)/C=C/c1ccc(OC)c(OC)c1
IC50 (HCT-116): > 30 µg/mL | IC50 (A-431): > 30 µg/mL | IC50 (B16): > 30 µg/mL

O=C(/C=C/c1ccc(O)c(O)c1)Nc1ccccc1
IC50 (HCT-116): 4.26 µg/mL (≈ 16.7 µM) | IC50 (A-431): 5 µg/mL (≈ 19.6 µM) | IC50 (B16): 4.23 µg/mL (≈ 16.6 µM)

COC(=O)/C=C\c1cc(O)ccc1O
IC50 (HCT-116): > 30 µg/mL | IC50 (A-431): > 30 µg/mL | IC50 (B16): 30.1 µg/mL (≈ 155 µM)

COC(=O)/C=C/c1cc(OC)c2c(c1OC)C(=O)c1ccccc1C2=O
IC50 (HCT-116): > 30 µg/mL | IC50 (A-431): > 30 µg/mL | IC50 (B16): > 30 µg/mL

COC(=O)/C=C/c1cc(OC)ccc1OC
IC50 (HCT-116): > 30 µg/mL | IC50 (A-431): > 30 µg/mL | IC50 (B16): > 30 µg/mL

O=C/C=C/c1ccc(O)c(O)c1 [CAFFEOYL ALDEHYDE]
IC50 (HCT-116): > 30 µg/mL | IC50 (A-431): > 30 µg/mL | IC50 (B16): > 30 µg/mL

COc1cccc2c1C(=O)c1c(O)c3c(c(O)c1C2=O)C[C@@](O)(C(=O)CO)C[C@@H]3O[C@H]1C[C@H](N)[C@H](O)[C@H](C)O1 [DOXORUBICIN]
IC50 (SNB-19): 0.29 µg/mL (≈ 0.534 µM)

CCOC(=O)/C=C/c1ccc(O)c(O)c1 [ETHYL CAFFEATE]
IC50 (HCT-116): 1.99 µg/mL (≈ 9.56 µM) | IC50 (A-431): 1.81 µg/mL (≈ 8.69 µM) | IC50 (B16): 1.75 µg/mL (≈ 8.4 µM)

COC(=O)/C=C/c1ccc(O)c(O)c1 [METHYLCAFFEATE]
IC50 (HCT-116): 3.01 µg/mL (≈ 15.5 µM) | IC50 (A-431): 1.79 µg/mL (≈ 9.22 µM) | IC50 (B16): 2.96 µg/mL (≈ 15.2 µM)

O=C1c2ccccc2C(=O)c2c(O)ccc(O)c21 [QUINIZARIN]
IC50 (HCT-116): > 30 µg/mL | IC50 (A-431): > 30 µg/mL | IC50 (B16): > 30 µg/mL
